Experimental data reported in US20070183995A1, “Compounds useful as agonists of A2A adenosine receptors, cosmetic compositions with A2A agonists and a method for using the same” (Conopco, Inc., d/b/a Unilever, priority 2006, published 2007).

Tested on: Melanoderm cultures (melanogenesis)
Assay: Melanoderm human skin equivalent lightening test (Hunter Lab L value)
Type: cell-based
Details: for Average L Value / L Value Range: 3 micromolar in media, dosed 10 times in 3 weeks, Hunter Lab L value, Minolta CR-10 chromameter; for Average L Value: averaged; for L Value Range: triplicate; for ΔL: difference in average Hunter Lab L value, treated vs untreated control cultures, 3 micromolar, 3 weeks
Description: As used herein, ΔL is defined to mean the difference in Hunter Lab L values when comparing three, three (3) week old Mattek Melanoderm cultures that have not been treated with a composition comprising an agonist of A2A receptors to three, three (3) week old Mattek melanoderm cultures that have been treated with a composition comprising an agonist of A2A receptors wherein treated means: • (a) placing the melanoderm culture within a six (6) well tissue culture dish and set about 0.3 cm off of the tissue culture dish; • (b) subjecting the melanoderm culture to a 3 micromolar composition having an agonist of A2A adenosine receptors, the composition being one prepared from a 10 millimolar solution of A2A agonist and carrier (e.g., dimethyl sulfoxide) having been diluted with Dulbecco's Modified Eagle Media; and • (c) comparing the treated and untreated cultures by obtaining average L values for each with a Minolta CR-10 chromameter.
Commercially available human skin equivalents (Melanoderm from Mattek) were obtained for testing the impact of agonists of A2A adenosine receptors on melanogenesis. Solutions having a final concentration of three (3) micromolar were prepared from a 10 millimolar dimethyl sulfoxide stock solution and dosed ten (10) times in a three (3) week period into the media of the melanoderm cultures. The media consisted of commercially available basal Dulbecco's Modified Eagles media, prepared and treated in the manner set forth in the manufacture's instructions. For long term maintenance of the Melanoderms, the basal media was supplemented with bFGF and alpha MSH to stimulate melanocyte growth and melanogenesis. Each treatment condition was done in triplicate and three (3) sets were made for each treatment, as well as for a control (culture not treated with the agonist). The cultures were maintained at a temperature of about 37° C. and stored in a humidified, 5% CO2 incubator during the dosing period, but removed while being dosed.
After a three (3) week period, Hunter lab L value readings were taken for each condition (with a.Minolta CR-10 chromameter) and then averaged.

Compound | Average L Value | L Value Range | ΔL
CCNC(=O)[C@H]1O[C@@H](n2cnc3c(N)nc(NCCc4ccc(CCC(=O)O)cc4)nc32)[C@H](O)[C@@H]1O [Agonist 1, 2-para(2-carboxyethyl)phenethylamino-5′-N-ethyl carboxamido adenosine] | 31.9 | 30.3-33.3 | 1.7
Nc1nc(Nc2ccccc2)nc2c1ncn2[C@@H]1O[C@H](CO)[C@@H](O)[C@H]1O [Agonist 2, phenylaminoadenosine] | 43.8 | 43.2-44.2 | 5.2
